Data as given in US20030207340A1, “Sequences encoding human neoplastic marker” (priority 2002, published 2003).

Legend:
[1] = test system: COS cells stably transfected with tNOX cDNA; assay: Growth inhibition of COS cells transfected with tNOX cDNA; type: cell-based, African monkey; settings: for EC50: Primates, COS cells stably transfected with tNOX cDNA, growth inhibition; for change of growth response (susceptibility) by tNOX cDNA transfection: tNOX cDNA-transfected vs control COS cells
Source text: Transient transfection of COS cells were with pcDNA3.1 (Invitrogen) and a Calcium Phosphate Transfection Kit (Invitrogen, Carlsbad, Calif.) according to the manufacturer's protocol. ttNOX cDNA was first amplified by PCR using primers 5═-[…]-3′ (forward; SEQ ID NO: 12) and 5′-[…]-3′ (reverse, SEQ ID NO: 13). The PCR product was then amplified using primers 5′-[…]-3′ (forward, SEQ ID NO: 14) and 5′-[…]-3′ (reverse, SEQ ID NO: 15) to construct a HindIII site at 5′ end of the nontemplate strand. The product was double digested using HindIII and BamHI enzymes. The digested products were separated on an agarose gel and extracted using a DNA Extraction Kit (Qiagen, Valencia, Calif.). The DNA was then ligated into a pcDNA3.1 vector that contains a cytomegalovirus enhancer-promoter for high levels of expression. For propagation of the plasmid DNA, the ligation product was used to transform XL-1 blue competent cells using heat pulse technique (Sambrook et al., 1989, supra). The positive clones were identified by PCR. The resulting plasmid was then used to transfect COS cells.
(§1) COS-1 cells (African monkey kidney cell line), were plated one day prior to transfection at 4×10^5 cells per 100-mm dish. Thirty-six μl of 2 M CaCl2 and 30 μg of pcDNA3.1 or pcDNA3.1-tNOX in 300 μl sterile H2O were slowly added dropwise into 300 μl of 2× Hepes Buffered Saline (HBS) at room temperature for 30 min. The transfection mixtures then were added dropwise to the media to the cells and incubated overnight at 37C. After overnight exposure to the DNA precipitate, the cells were washed twice with PBS and 3 ml of DMSO were added for 2.5 min. The DMSO then was removed and cells were fed with fresh media for 2-3 days. tNOX expression was evaluated on the basis of enzymatic activity and Western blot analysis. For selection of stable transfectants, antibiotic G418 sulfate was used (Invitrogen, Carlsbad, Calif.). After the COS cells were transfected with the tNOX cDNA expression plasmid, 0.5 mg/ml of G418 sulfate was added into the media twice a week and the cultures were maintained until colonies 2 to 3 mm in diameter were formed. A total of three colonies were selected and trypsinized individually and then transferred into wells of a 24-well plate and then into a 35 mm petri dish. Cells were harvested at 80% confluency. Transfections were confirmed by immunoblotting.

[2] = test system: COS cells; assay: Growth inhibition of control COS cells (nontransfected / vector alone); type: cell-based, African monkey; settings: for EC50: Primates, nontransfected COS cells, growth inhibition
Protocol: as §1

[3] = target: T1, ttNOX (truncated tNOX) (Homo sapiens, UniProt Q16206); assay: NADH oxidase activity of ttNOX expressed in E. coli (induced bacterial extract); type: biochemical
T1 construct: made in house; host or cells: E. coli BL21 (DE3), vector pET-11b; crude induced bacterial extract
T1 sequence (Q16206 220-610): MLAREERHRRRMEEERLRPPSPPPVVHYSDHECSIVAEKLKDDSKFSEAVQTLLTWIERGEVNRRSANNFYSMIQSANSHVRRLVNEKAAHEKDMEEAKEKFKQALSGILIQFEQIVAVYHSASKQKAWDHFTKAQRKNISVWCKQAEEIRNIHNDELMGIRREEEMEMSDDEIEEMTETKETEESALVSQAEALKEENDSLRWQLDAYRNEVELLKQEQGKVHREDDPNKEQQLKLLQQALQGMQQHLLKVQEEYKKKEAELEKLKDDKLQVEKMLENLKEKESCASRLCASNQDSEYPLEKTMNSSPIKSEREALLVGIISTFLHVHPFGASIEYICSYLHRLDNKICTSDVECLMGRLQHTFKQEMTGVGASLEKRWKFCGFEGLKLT
Source text: tNOX cDNA from clone 1 was expressed in E. coli either as a truncated form (ttNOX) (beginning at M220), as a fusion protein with six histidine residues (ttNOX-his) fused to the amino terminus of ttNOX, or as a processed tNOX (beginning at G327). First, the open reading frame of ttNOX DNA and nucleotides of 3′-untranslated region were amplified by PCR, digested with NdeI and BamHI followed by ligation into the protein expression vector pET-11b. All primers were synthesized by the Laboratory for Macromolecular Structure (Purdue University, IN). Primers for PCR amplification of ttNOX were 5′-[…]-3′ (forward, SEQ ID NO: 6) and 5′[…]-3′ (reverse, SEQ ID NO: 7). Primers for processed form of tNOX were 5′-[…]-3′ (forward, SEQ ID NO: 8) and 5′-[…]-3′ (reverse, SEQ ID NO: 9). Primers for histidine-tagged ttNOX were 5′-[…]-3′ (forward, SEQ ID NO: 10) and 5′-[…]-3′ (reverse, SEQ ID NO: 11). The forward primer was designed to incorporate six histidine residues to the amino terminus of tNOX protein. The amplification performed was with an initiation step of 94C. for 90 sec, followed by 90 sec of denaturation at 94C., 90 sec of annealing at 55C., and 90 sec of extension at 72C. for 29 cycles.
E. coli [BL21 (DE3)] were transfected and grown in LB medium containing ampicillin (100 μg/ml) for 16 hr at 25C. and harvested. DNA sequences of the ligation products were confirmed by DNA sequencing. Expressions of all forms of tNOX were confirmed by SDS-PAGE with silver staining and immunoblotting. Immunoblot analysis was with anti-tNOX monoclonal antibody. Detection used alkaline […] conjugated anti-mouse antibody.

[4] = test system: plasma membranes prepared from HeLa cells; settings: cited from earlier work
[5] = target: T2, tNOX (Homo sapiens, UniProt Q16206); settings: cited from earlier work
T2 sequence (Q16206 1-610): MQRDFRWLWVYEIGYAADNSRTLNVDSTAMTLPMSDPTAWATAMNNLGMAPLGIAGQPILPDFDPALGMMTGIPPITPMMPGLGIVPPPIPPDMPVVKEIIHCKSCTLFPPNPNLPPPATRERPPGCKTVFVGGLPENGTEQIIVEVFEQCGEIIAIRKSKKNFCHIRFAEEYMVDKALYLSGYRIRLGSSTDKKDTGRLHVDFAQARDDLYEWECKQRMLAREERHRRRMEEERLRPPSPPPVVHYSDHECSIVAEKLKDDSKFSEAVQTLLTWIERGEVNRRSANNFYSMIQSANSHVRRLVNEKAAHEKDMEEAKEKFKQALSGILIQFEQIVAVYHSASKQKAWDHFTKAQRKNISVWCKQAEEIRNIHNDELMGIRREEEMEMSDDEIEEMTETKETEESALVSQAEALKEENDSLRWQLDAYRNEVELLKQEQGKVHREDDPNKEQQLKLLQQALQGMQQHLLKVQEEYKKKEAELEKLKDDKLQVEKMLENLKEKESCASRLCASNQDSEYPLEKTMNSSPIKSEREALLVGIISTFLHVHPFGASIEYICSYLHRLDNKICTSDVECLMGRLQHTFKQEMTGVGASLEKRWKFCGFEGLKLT

[6] = test system: CNOX; settings: cited from earlier work

Compound: COc1cccc2c1C(=O)c1c(O)c3c(c(O)c1C2=O)C[C@@](O)(C(=O)CO)C[C@@H]3O[C@H]1C[C@H](N)[C@H](O)[C@H](C)O1 [Adriamycin, adriamycin]
- EC50 [1]: 40 nM
- EC50 [2]: 300 nM

Compound: COc1cc(CNC(=O)CCCC/C=C/C(C)C)ccc1O [Capsaicin, 8-methyl-N-vanillyl-6-noneamide]
- EC50 [1]: 1300 nM
- change of growth response (susceptibility) by tNOX cDNA transfection [1]: more susceptible
- EC50 [2]: 13000 nM
- inhibition of the activity of the bacterially expressed protein [3]: complete
- periodic NADH oxidase activity of induced bacterial extracts ([3]; in the presence of 1 or 100 μM capsaicin): no periodic activity

Compound: Cc1ccc(S(=O)(=O)NC(=O)Nc2ccc(Cl)cc2)cc1 [LY181984, N-(4-methylphenylsulfonyl)-N′-(4-chlorophenyl)urea]
- EC50 [1]: 3000 nM
- EC50 [2]: 20000 nM
- inhibition of NADH oxidase activity of induced bacterial extract ([3]; 1 μM): completely inhibited
- oxygen uptake by HeLa plasma membranes [4]: inhibited

Compound: Cc1ccc(S(=O)(=O)NC(=O)Nc2ccccc2)cc1 [LY181985, N-(4-methylphenylsulfonyl)-N′-(4-phenyl)urea]
- growth inhibition ([1]; cells transfected with tNOX cDNA): did not inhibit
- growth inhibition ([2]; control cells transfected with vector alone): did not inhibit

Compound: CN(Cc1cnc2nc(N)nc(N)c2n1)c1ccc(C(=O)N[C@@H](CCC(=O)O)C(=O)O)cc1 [Methotrexate, methotrexate]
- EC50 [1]: 1000 nM
- change of growth response (susceptibility) by tNOX cDNA transfection [1]: unaffected
- EC50 [2]: 1000 nM

Compound: (−)-epigallocatechin gallate [EGCg]
- change of growth response (susceptibility) by tNOX cDNA transfection [1]: more susceptible
- effect on activity of tNOX [5]: inhibits
- effect on constitutive CNOX [6]: largely without effect
